Results taken from US20150196030A1, “HERBICIDAL COMPOSITION CONTAINING 4-AMINO-3-CHLORO-6-(4-CHLORO-2-FLUORO-3-METHOXYPHENYL) PYRIDINE-2-CARBOXYLIC ACID OR DERIVATIVES THEREOF, FLUROXYPYR OR DERIVATIVES THEREOF, AND PHENOXY AUXINS OR DERIVATIVES THEREOF” (DOW AGROSCIENCES LLC, priority 2014, published 2015).

Tests used:
Assay in all cases: Field trial, post-emergence weed control, visual percent control
Type in all cases: in vivo
[1] = system: AMBTR: giant ragweed (Ambrosia trifida); settings: 49 DAA, ON, halauxifen-methyl 5, fluroxypyr-meptyl 77, 2,4-D ester 350 g ae/ha, each alone or three-way combination
Text: (§1) Nine small plot field trials were established across various ecozones in Alberta, Saskatchewan, Manitoba and Ontario, Canada, between 2011 and 2014 to evaluate potential synergy between 1) halauxifen-methyl (100 grams acid equivalent per kilogram (g ae/kg)), fluroxypyr-meptyl as Starane II EC (333 grams acid equivalent per liter (g ae/L) fluroxypyr), and MCPA 2-ethylhexyl ester (MCPA ester; 600 g ae/L), 2) the halauxifen-methyl+fluroxypyr premix (16.25 g ae/L halauxifen-methyl and 250 g ae/L fluroxypyr-meptyl) and MCPA ester (600 g ae/L), and 3) halauxifen-methyl (100 g ae/kg), fluroxypyr-meptyl as Starane II EC (333 g ae/L fluroxypyr), and 2,4-D 2-ethylhexyl ester (2,4-D ester; 660 g ae/L). In trials evaluating synergy between halauxifen-methyl, fluroxypyr-meptyl, and MCPA ester, actives were applied individually at rates of 6.5, 100, and 420 grams acid equivalent per hectare (g ae/ha), respectively, and in a three-way combination at identical rates. When applied individually, halauxifen-methyl was applied in all trials with Turbocharge adjuvant (50% mineral oil/39.5% surfactant blend) at 0.5% volume per volume (v/v). In trials evaluating synergy between the halauxifen-methyl+fluroxypyr premix, and MCPA ester, premix and MCPA ester were applied individually at rates of 82 g ae/ha (5 g ae/ha halauxifen-methyl+77 g ae/ha fluroxypyr) or 106.5 g ae/ha (6.5 g ae/ha halauxifen-methyl+100 g ae/ha fluroxypyr), and 350 or 420 g ae/ha MCPA ester, respectively, and in a two-way combination at rates of 82 g ae/ha premix+350 g ae/ha MCPA ester or […] premix+420 g ae/ha MCPA ester. When applied individually, the halauxifen-methyl+fluroxypyr premix was applied at a rate of 106.5 g ae/ha without an adjuvant, or at a rate of 82 g ae/ha with Turbocharge adjuvant at 0.5% v/v. In trials evaluating synergy between halauxifen-methyl, fluroxypyr-meptyl, and 2,4-D ester, actives were applied individually at rates of 5, 77, and 350 grams acid equivalent per hectare (g ae/ha), respectively, and in a three-way combination at identical rates. When applied individually, halauxifen-methyl was applied with Intake adjuvant (586 grams per liter (g/L) paraffinic oil/242 g/L alkoxylated alcohol non-ionic surfactants) at 1% volume per volume (v/v).
(§2) Trials were established as randomized complete blocks (RCBD) with four replicates. Individual treatments were 2-3 meters (m) wide and 10-11 m long. An untreated control was included in each trial. All trial sites had naturally occurring populations of weeds, which in some trials were augmented with additional weed seeds during trial establishment.
(§3) Herbicides were applied with backpack, bicycle, or tractor-mounted sprayers using carbon dioxide (CO2) as a propellant. All sprayers delivered a uniform spray pattern that provided thorough coverage of the foliage using a water volume of 100-200 liters per hectare (L/ha). All herbicides were applied post-emergence in the spring to early-summer. At the time of herbicide applications, spring wheat, durum wheat, and winter wheat crops were at the four-leaf to three-node stage. Broadleaf weeds were at the seedling stage at the time of herbicide applications.
(§4) Foliar damage to target pest plants was visually assessed as percent control, compared to an untreated control plot. The assessments were based on a percent visual reduction in pest plant biomass and/or stand reduction of weed population. In general, three-to-four replicates were assessed for each treatment, and the results for each experiment (trial) are presented as overall average control. The efficacy of all treatments was assessed at 13-22 days after application (DAA) for an early season rating, 23-39 DAA for a mid-season rating, and 41-84 DAA for a late-season rating. The data were statistically analyzed using various statistical methods, generally including a Tukey's HSD Factorial Analysis of Variance with a significance level of 5%. […]

[2] = system: TRFPR: red clover (Trifolium pratense); settings: 84 DAA, ON, halauxifen-methyl 5, fluroxypyr-meptyl 77, 2,4-D ester 350 g ae/ha, each alone or three-way combination
Text: as §1, §2, §3, §4

[3] = system: POLPE: lady's-thumb (Polygonum persicaria)
Text: as §1, §2, §3, §4

[4] = system: GAETE: hemp-nettle (Galeopsis tetrahit); settings: 14 DAA, AB
Text: as §1, §2, §3, §4

[5] = system: BRSNN: canola, volunteer (Brassica napus); settings: SK
Text: as §1, §2, §3, §4

[6] = system: STEME: chickweed, common (Stellaria media); settings: 59 DAA, AB
Text: as §1, §2, §3, §4

[7] = system: ARTAB: absinth wormwood (Artemisia absinthium); settings: 47 DAA, MB, premix 6.5 + 100 (106.5) g ae/ha, MCPA ester 420 g ae/ha, alone or combined
Text: as §1, §2, §3, §4

[8] = system: POLCO: wild buckwheat (Polygonum convolvulus); settings: premix 6.5 + 100 (106.5) g ae/ha, MCPA ester 420 g ae/ha, alone or combined
Text: as §1, §2, §3, §4

[9] = system: AMBEL: ragweed, common (Ambrosia artemisiifolia); settings: 28 DAA, ON, premix 5 + 77 (82) g ae/ha, MCPA ester 350 g ae/ha, alone or combined
Text: as §1, §2, §3, §4

[10] = 14 DAA, AB, halauxifen-methyl 6.5, fluroxypyr-meptyl 100, MCPA ester 420 g ae/ha, each alone or three-way combination
[11] = 49 DAA, AB, halauxifen-methyl 6.5, fluroxypyr-meptyl 100, MCPA ester 420 g ae/ha, each alone or three-way combination
[12] = 57 DAA, AB, halauxifen-methyl 6.5, fluroxypyr-meptyl 100, MCPA ester 420 g ae/ha, each alone or three-way combination
[13] = 59 DAA, AB, halauxifen-methyl 6.5, fluroxypyr-meptyl 100, MCPA ester 420 g ae/ha, each alone or three-way combination
[14] = SK, 49 DAA or 57 DAA, halauxifen-methyl 6.5, fluroxypyr-meptyl 100, MCPA ester 420 g ae/ha, each alone or three-way combination
[15] = halauxifen-methyl 6.5, fluroxypyr-meptyl 100, MCPA ester 420 g ae/ha, each alone or three-way combination
[16] = 14 DAA, halauxifen-methyl 6.5, fluroxypyr-meptyl 100, MCPA ester 420 g ae/ha, each alone or three-way combination
[17] = 33 DAA, halauxifen-methyl 6.5, fluroxypyr-meptyl 100, MCPA ester 420 g ae/ha, each alone or three-way combination
[18] = premix 6.5 + 100 (106.5) g ae/ha, MCPA ester 420 g ae/ha, alone or combined

CCCCC(CC)COC(=O)COc1ccc(Cl)cc1Cl (centres unmarked) [2,4-D ester, 2-ethylhexyl(2,4-dichlorophenoxy)acetate]
Obs: Observed percent weed control [1]: 83%
Obs: Observed percent weed control [2]: 7.4%

CCCCCCC(C)OC(=O)COc1nc(F)c(Cl)c(N)c1Cl (centres unmarked) [Fluroxypyr-meptyl, 1-methylheptyl 2-[(4-amino-3,5-dichloro-6-fluoro-2-pyridinyl)oxy]acetate]
Obs: Observed percent weed control [1]: 21.7%
Obs: Observed percent weed control [3, 10]: 0%
Obs: Observed percent weed control [3, 11]: 0%
Obs: Observed percent weed control [3, 12]: 23%
Obs: Observed percent weed control [3, 13]: 61%
Obs: Observed percent weed control [3, 14]: 25%
Obs: Observed percent weed control [4, 15]: 39%
Obs: Observed percent weed control [5, 16]: 30%
Obs: Observed percent weed control [5, 17]: 20%
Obs: Observed percent weed control [2]: 12.4%
Obs: Observed percent weed control [6, 15]: 15%

COC(=O)c1nc(-c2ccc(Cl)c(OC)c2F)cc(N)c1Cl [Halauxifen-methyl, methyl 4-amino-3-chloro-6-(4-chloro-2-fluoro-3-methoxyphenyl)-2-pyridinecarboxylate]
Obs: Observed percent weed control [1]: 20%
Obs: Observed percent weed control [3, 10]: 0%
Obs: Observed percent weed control [3, 11]: 0%
Obs: Observed percent weed control [3, 12]: 0%
Obs: Observed percent weed control [3, 13]: 33%
Obs: Observed percent weed control [3, 14]: 10%
Obs: Observed percent weed control [4, 15]: 79%
Obs: Observed percent weed control [5, 16]: 20%
Obs: Observed percent weed control [5, 17]: 15%
Obs: Observed percent weed control [2]: 15%
Obs: Observed percent weed control [6, 15]: 24%

CCCCC(CC)COC(=O)COc1ccc(Cl)cc1C (centres unmarked) [MCPA ester, 2-ethylhexyl 2-(4-chloro-2-methylphenoxy)acetate]
Obs: Observed percent weed control [7]: 0%
Obs: Observed percent weed control ([8]; 35 DAA, MB): 0%
Obs: Observed percent weed control ([8]; 47 DAA, MB): 0%
Obs: Observed percent weed control ([8]; 63 DAA, AB): 43%
Obs: Observed percent weed control [3, 10]: 0%
Obs: Observed percent weed control ([3]; 14 DAA, MB, premix 5 + 77 (82) g ae/ha, MCPA ester 350 g ae/ha, alone or combined): 38%
Obs: Observed percent weed control ([3]; 14 DAA, MB, premix 6.5 + 100 (106.5) g ae/ha, MCPA ester 420 g ae/ha, alone or combined): 38%
Obs: Observed percent weed control ([3]; 34 DAA, MB, premix 5 + 77 (82) g ae/ha, MCPA ester 350 g ae/ha, alone or combined): 40%
Obs: Observed percent weed control ([3]; 34 DAA, MB, premix 6.5 + 100 (106.5) g ae/ha, MCPA ester 420 g ae/ha, alone or combined): 40%
Obs: Observed percent weed control ([3]; 49 DAA (likely), MB, premix 6.5 + 100 (106.5) g ae/ha, MCPA ester 420 g ae/ha, alone or combined): 27%
Obs: Observed percent weed control [3, 11]: 0%
Obs: Observed percent weed control ([3]; 49 DAA, AB, premix 6.5 + 100 (106.5) g ae/ha, MCPA ester 420 g ae/ha, alone or combined): 0%
Obs: Observed percent weed control ([3]; 54 DAA, MB, premix 6.5 + 100 (106.5) g ae/ha, MCPA ester 420 g ae/ha, alone or combined): 38%
Obs: Observed percent weed control [3, 12]: 0%
Obs: Observed percent weed control ([3]; 57 DAA, AB, premix 6.5 + 100 (106.5) g ae/ha, MCPA ester 420 g ae/ha, alone or combined): 0%
Obs: Observed percent weed control [3, 13]: 35%
Obs: Observed percent weed control ([3]; 59 DAA, AB, premix 6.5 + 100 (106.5) g ae/ha, MCPA ester 420 g ae/ha, alone or combined): 35%
Obs: Observed percent weed control [3, 14]: 30%
Obs: Observed percent weed control [9]: 15%
Obs: Observed percent weed control [4, 15]: 31%
Obs: Observed percent weed control [4, 18]: 31%
Obs: Observed percent weed control [5, 16]: 80%
Obs: Observed percent weed control [5, 17]: 95%
Obs: Observed percent weed control ([5]; 33 DAA, premix 6.5 + 100 (106.5) g ae/ha, MCPA ester 420 g ae/ha, alone or combined): 95%
Obs: Observed percent weed control [6, 15]: 0%
Obs: Observed percent weed control [6, 18]: 0%
